Data as given in patent EP0338435A1, “3,4-Dihydroxypyrrolidin-2-one derivatives, process for their preparation, agents containing them and their use as well as the intermediates resulting from the preparation” (HOECHST AKTIENGESELLSCHAFT, priority 1988, dated 1989).
Like-named read-outs stand apart in the source and are kept apart here.

Columns and labels:
ECS-Amnesie = experiment: inhibitory (passive) avoidance test (step-through test), reversal of ECS-induced amnesia; type: in vivo, Mäusen; conditions: po
Text: (§1) Die Verbindungen der Formel I besitzen wertvolle pharmakologische Eigenschaften, insbesondere nootrope. Die nootrope Wirkung der erfindungsgemäßen Verbindungen wurde an Mäusen, die ein Körpergewicht von 20-25 g besaßen, im inhibitory (passive) avoidance test (step-through-test) geprüft. Eine modifizierte Form der von J. Kopp. Z. Bodanecky und M.E. Jarvik beschriebenen Test-Methode wurde von J. Bures, 0. Buresova und J. Huston im "Techniques and Basic Experiments for the Study of Brain and Benavior", Elsevier Scientific Publishers, Amsterdam 1983, beschrieben.
(§2) Entsprechend diesen Literaturangaben wird eine Substanz dann als nootrop wirksam bezeichnet, wenn sie bei den Versuchstieren die mittels eines electroconvulsiven Schocks erzeugte Amnesie (ECS-Amnesie) bzw. mittels Scopolamin-Injektion erzeugte Amnesie aufzuheben vermag.
(§3) Die Versuche wurden nach modifizierten Test-Methoden mit den erfindungsgemäßen Verbindungen durchgeführt. Als Vergleichsverbindung diente das bekannte Nootropikum 2-0xo-1-pyrrolidinylessigsäurea- mid (Piracetam). Die deutliche Überlegenheit der erfindungsgemäßen Verbindungen über die Vergleichssubstanz zeigte sich darin, daß der amnestische Effekt bereits mit einer MED (minimal effective dose) von 1-10 mg/kg p.o. aufzuheben ist. Die Vergleichssubstanz hat eine MED von ca. 500-1000 mg/kg p.o.

Scopolamin-Amnesie = experiment: inhibitory (passive) avoidance test (step-through test), reversal of scopolamine-induced amnesia; type: in vivo, Mäusen; conditions: Mus musculus, po, read-out: Inhibitory avoidance MED mg/kg p.o. Scopolamin-Amnesie
Text: as §1, §2, §3

[1] = Mus musculus, mice 20-25 g, amnesia induced by electroconvulsive shock, read-out: Inhibitory avoidance MED mg/kg p.o. ECS-Amnesie
[2] = Mus musculus, read-out: Inhibitory avoidance MED mg/kg p.o. ECS-Amnesie
[3] = mice 20-25 g, amnesia induced by scopolamine injection

SMILES	minimal effective dose (ECS-Amnesie; [1]) [mg/kg]	minimal effective dose (ECS-Amnesie; [2]) [mg/kg]	minimal effective dose (Scopolamin-Amnesie; [3]) [mg/kg]	other results
Cc1ccc(CN2C[C@@H](O)[C@@H](O)C2=O)cc1 [Beispiel 33]	3	–	–	–
Nc1ccc(CN2C[C@@H](O)[C@@H](O)C2=O)cc1 [Beispiel 36, 1-(4-Aminobenzyl)-(3R,4R)-3,4-dihydroxypyrrolidin-2-on]	3	–	–	–
CC(C)N(CCNC(=O)CN1C[C@@H](O)[C@@H](O)C1=O)C(C)C [Beispiel 28, N-[2-(Diisopropylamino)ethyl]-2-[(3R,4R)-3,4-dihydroxypyrrolidin-2-on-1-yl]acetamid]	–	10	–	–
COc1cccc(CN2C[C@@H](O)[C@@H](O)C2=O)c1 [Beispiel 34]	3	–	1	–
NC(=O)CN1CCCC1=O [Piracetam, 2-0xo-1-pyrrolidinylessigsäurea-mid, reference compound]	–	1000	–	minimal effective dose (ECS-Amnesie; read-out: MED (minimal effective dose)): 500 to 1000 mg/kg; minimal effective dose (Scopolamin-Amnesie): 500 mg/kg
O=C1[C@H](O)[C@H](O)CN1Cc1ccccc1 [Beispiel 29, 1-Benzyl-(3R,4R)-3.4-dihydroxy-pyrrolidin2-on]	3	–	1	–
